Experiments:
Format in all cases: functional
EKVX = assay: Anticancer activity against human EKVX cells assessed cell growth at 10 uM after 48 hrs by sulforhodamine B assay relative to control
CCRF-CEM = assay: Anticancer activity against human CCRF-CEM cells after 48 hrs by sulforhodamine B assay; conditions: Homo sapiens, CCRF-CEM, 48 h
MOLT-4 = assay: Anticancer activity against human MOLT4 cells after 48 hrs by sulforhodamine B assay; conditions: Homo sapiens, MOLT-4, 48 h
[1] = Anticancer activity against human […] cells after 48 hrs by sulforhodamine B assay; conditions: Homo sapiens, RPMI8266, 48 h; for CC50: read-out: LC50 (the source's name)
A549 = assay: Anticancer activity against human A549 cells after 48 hrs by sulforhodamine B assay; conditions: Homo sapiens, A549, 48 h
NCI-H460 = assay: Anticancer activity against human NCI-H460 cells after 48 hrs by sulforhodamine B assay; conditions: Homo sapiens, NCI-H460, 48 h
NCI-H522 = assay: Anticancer activity against human NCI-H522 cells after 48 hrs by sulforhodamine B assay; conditions: Homo sapiens, NCI-H522, 48 h
HCT-116 = assay: Anticancer activity against human HCT116 cells after 48 hrs by sulforhodamine B assay; conditions: Homo sapiens, HCT-116, 48 h; for CC50: read-out: LC50 (the source's name)
HCT-15 = assay: Anticancer activity against human HCT15 cells after 48 hrs by sulforhodamine B assay; conditions: Homo sapiens, HCT-15, 48 h; for CC50: read-out: LC50 (the source's name)
HT-29 = assay: Anticancer activity against human HT-29 cells after 48 hrs by sulforhodamine B assay; conditions: Homo sapiens, HT-29, 48 h; for CC50: read-out: LC50 (the source's name)
SF-268 = assay: Anticancer activity against human SF268 cells after 48 hrs by sulforhodamine B assay; conditions: Homo sapiens, SF-268, 48 h; for CC50: read-out: LC50 (the source's name)
SF-539 = assay: Anticancer activity against human SF539 cells after 48 hrs by sulforhodamine B assay; conditions: Homo sapiens, SF-539, 48 h
SNB-19 = assay: Anticancer activity against human SNB19 cells after 48 hrs by sulforhodamine B assay; conditions: Homo sapiens, SNB-19, 48 h; for CC50: read-out: LC50 (the source's name)
Malme-3M = assay: Anticancer activity against human MALME-3M cells after 48 hrs by sulforhodamine B assay; conditions: Homo sapiens, Malme-3M, 48 h
M14 = assay: Anticancer activity against human M14 cells after 48 hrs by sulforhodamine B assay; conditions: Homo sapiens, M14, 48 h
SK-MEL-2 = assay: Anticancer activity against human SK-MEL-2 cells after 48 hrs by sulforhodamine B assay; conditions: SK-MEL-2, 48 h
SK-MEL-28 = assay: Anticancer activity against human SK-MEL-28 cells after 48 hrs by sulforhodamine B assay; conditions: Homo sapiens, SK-MEL-28, 48 h
UACC-257 = assay: Anticancer activity against human UACC257 cells after 48 hrs by sulforhodamine B assay; conditions: Homo sapiens, UACC-257, 48 h
UACC-62 = assay: Anticancer activity against human UACC62 cells after 48 hrs by sulforhodamine B assay; conditions: Homo sapiens, UACC-62, 48 h
IGROV-1 = assay: Anticancer activity against human IGROV1 cells after 48 hrs by sulforhodamine B assay; conditions: IGROV-1, 48 h; for CC50: read-out: LC50 (the source's name)
OVCAR-3 = assay: Anticancer activity against human OVCAR-3 cells after 48 hrs by sulforhodamine B assay; conditions: Homo sapiens, OVCAR-3, 48 h
OVCAR-5 = assay: Anticancer activity against human OVCAR5 cells after 48 hrs by sulforhodamine B assay; conditions: Homo sapiens, OVCAR-5, 48 h; for CC50: read-out: LC50 (the source's name)
786-0 = assay: Anticancer activity against human 786-0 cells after 48 hrs by sulforhodamine B assay; conditions: Homo sapiens, 786-0, 48 h
CAKI-1 = assay: Anticancer activity against human Caki1 cells after 48 hrs by sulforhodamine B assay; conditions: Homo sapiens, CAKI-1, 48 h
RXF 393 = assay: Anticancer activity against human RXF393 cells after 48 hrs by sulforhodamine B assay; conditions: Homo sapiens, RXF 393, 48 h
SN12C = assay: Anticancer activity against human SN12C cells after 48 hrs by sulforhodamine B assay; conditions: Homo sapiens, SN12C, 48 h
TK-10 = assay: Anticancer activity against human TK10 cells after 48 hrs by sulforhodamine B assay; conditions: Homo sapiens, TK-10, 48 h
UO-31 = assay: Anticancer activity against human UO31 cells after 48 hrs by sulforhodamine B assay; conditions: Homo sapiens, UO-31, 48 h
PC-3 = assay: Anticancer activity against human PC3 cells after 48 hrs by sulforhodamine B assay; conditions: Homo sapiens, PC-3, 48 h; for CC50: read-out: LC50 (the source's name)
DU-145 = assay: Anticancer activity against human DU145 cells after 48 hrs by sulforhodamine B assay; conditions: Homo sapiens, DU-145, 48 h; for CC50: read-out: LC50 (the source's name)
MDA-MB-231 = assay: Anticancer activity against human MDA-MB-231 cells after 48 hrs by sulforhodamine B assay; conditions: Homo sapiens, MDA-MB-231, 48 h; for CC50: read-out: LC50 (the source's name)
[2] = Anticancer activity against human Hs 578T cells after 48 hrs by sulforhodamine B assay; conditions: Homo sapiens, Hs-578T, 48 h; for CC50: read-out: LC50 (the source's name)
MDA-MB-435 = assay: Anticancer activity against human MDA-MB-435 cells after 48 hrs by sulforhodamine B assay; conditions: Homo sapiens, MDA-MB-435, 48 h; for CC50: read-out: LC50 (the source's name)
BT-549 = assay: Anticancer activity against human BT549 cells after 48 hrs by sulforhodamine B assay; conditions: Homo sapiens, BT-549, 48 h; for CC50: read-out: LC50 (the source's name)

Cn1cc[n+](Cc2ccccc2)c1.F[P-](F)(F)(F)(F)F
Activity (EKVX): 102.53%

Cn1cc[n+](CCO)c1.O=S(=O)([N-]S(=O)(=O)C(F)(F)F)C(F)(F)F
Activity (EKVX): 100.51%

COCC[n+]1ccn(C)c1.O=S(=O)([N-]S(=O)(=O)C(F)(F)F)C(F)(F)F
Activity (EKVX): 108.75%

CCCCCCCCCCCCCCCCCC[n+]1ccn(C)c1.FC(F)(F)C(F)(F)[P-](F)(F)(F)(C(F)(F)C(F)(F)F)C(F)(F)C(F)(F)F
GI50 (CCRF-CEM): 0.324 µM
LC50 (CCRF-CEM): > 100 µM
GI50 (MOLT-4): 0.336 µM
LC50 (MOLT-4): > 100 µM
GI50 [1]: 0.086 µM
CC50 [1]: > 100 µM
GI50 (A549): 0.458 µM
LC50 (concentration killing 50% of cells) (A549): > 100 µM
GI50 (NCI-H460): 0.323 µM
LC50 (NCI-H460): 4.85 µM
GI50 (NCI-H522): 0.285 µM
LC50 (NCI-H522): 4.32 µM
GI50 (HCT-116): 0.294 µM
CC50 (HCT-116): > 100 µM
GI50 (HCT-15): 0.309 µM
CC50 (HCT-15): 4.41 µM
GI50 (HT-29): 0.315 µM
CC50 (HT-29): > 100 µM
GI50 (SF-268): 0.481 µM
CC50 (SF-268): 5.79 µM
GI50 (SF-539): 0.288 µM
LC50 (lethal concentration, 50% cell kill) (SF-539): 4.19 µM
GI50 (SNB-19): 0.422 µM
CC50 (SNB-19): 3.95 µM
GI50 (Malme-3M): 0.271 µM
LC50 (concentration killing 50% of cells) (Malme-3M): 4.25 µM
GI50 (M14): 0.402 µM
LC50 (50% lethal concentration) (M14): > 100 µM
GI50 (SK-MEL-2): 0.372 µM
LC50 (SK-MEL-2): > 100 µM
GI50 (SK-MEL-28): 0.374 µM
LC50 (SK-MEL-28): 3.98 µM
GI50 (UACC-257): 0.523 µM
LC50 (UACC-257): 9.71 µM
GI50 (UACC-62): 0.5 µM
LC50 (UACC-62): 4.66 µM
GI50 (IGROV-1): 0.219 µM
CC50 (IGROV-1): 1.45 µM
GI50 (OVCAR-3): 0.316 µM
LC50 (50% lethal concentration) (OVCAR-3): 3.79 µM
GI50 (OVCAR-5): 0.489 µM
CC50 (OVCAR-5): 32.7 µM
GI50 (786-0): 0.425 µM
LC50 (50% lethal concentration) (786-0): 5.36 µM
GI50 (CAKI-1): 0.293 µM
LC50 (CAKI-1): 7.46 µM
GI50 (RXF 393): 0.93 µM
LC50 (RXF 393): 8.31 µM
GI50 (SN12C): 0.353 µM
LC50 (SN12C): 4.18 µM
GI50 (TK-10): 0.31 µM
LC50 (TK-10): 4.12 µM
GI50 (UO-31): 0.365 µM
LC50 (UO-31): 5.31 µM
GI50 (PC-3): 0.276 µM
CC50 (PC-3): 8.03 µM
GI50 (DU-145): 0.495 µM
CC50 (DU-145): 4.43 µM
GI50 (MDA-MB-231): 0.378 µM
CC50 (MDA-MB-231): 4.82 µM
GI50 [2]: 0.287 µM
CC50 [2]: 5.43 µM
GI50 (MDA-MB-435): 0.344 µM
CC50 (MDA-MB-435): 2.93 µM
GI50 (BT-549): 0.334 µM
CC50 (BT-549): 4.2 µM

CCCCCCCCCCCCCCCCCC[n+]1ccn(C)c1.O=S(=O)([N-]S(=O)(=O)C(F)(F)F)C(F)(F)F
GI50 (CCRF-CEM): 0.458 µM
LC50 (CCRF-CEM): > 100 µM
GI50 (MOLT-4): 0.65 µM
LC50 (MOLT-4): > 100 µM
GI50 [1]: 0.062 µM
CC50 [1]: > 100 µM
GI50 (A549): 1.18 µM
LC50 (concentration killing 50% of cells) (A549): > 100 µM
GI50 (NCI-H460): 0.663 µM
LC50 (NCI-H460): 5.24 µM
GI50 (NCI-H522): 1.02 µM
LC50 (NCI-H522): > 100 µM
GI50 (HCT-116): 0.651 µM
CC50 (HCT-116): > 100 µM
GI50 (HCT-15): 1.07 µM
CC50 (HCT-15): 5.94 µM
GI50 (HT-29): 0.378 µM
CC50 (HT-29): 9.13 µM
GI50 (SF-268): 1.14 µM
CC50 (SF-268): 6.29 µM
GI50 (SF-539): 0.937 µM
LC50 (lethal concentration, 50% cell kill) (SF-539): 5.28 µM
GI50 (SNB-19): 1.18 µM
CC50 (SNB-19): 4.95 µM
GI50 (Malme-3M): 0.454 µM
LC50 (concentration killing 50% of cells) (Malme-3M): 5.08 µM
GI50 (M14): 0.537 µM
LC50 (50% lethal concentration) (M14): 6.84 µM
GI50 (SK-MEL-2): 2.09 µM
LC50 (SK-MEL-2): > 100 µM
GI50 (SK-MEL-28): 1.14 µM
LC50 (SK-MEL-28): 6.51 µM
GI50 (UACC-257): 1.53 µM
LC50 (UACC-257): > 100 µM
GI50 (UACC-62): 1.04 µM
LC50 (UACC-62): 5.1 µM
GI50 (IGROV-1): 0.516 µM
CC50 (IGROV-1): > 100 µM
GI50 (OVCAR-3): 0.442 µM
LC50 (50% lethal concentration) (OVCAR-3): 4.71 µM
GI50 (OVCAR-5): 0.909 µM
CC50 (OVCAR-5): 9.14 µM
GI50 (786-0): 0.952 µM
LC50 (50% lethal concentration) (786-0): > 100 µM
GI50 (CAKI-1): 0.263 µM
LC50 (CAKI-1): 6.72 µM
GI50 (RXF 393): 1.03 µM
LC50 (RXF 393): 6.55 µM
GI50 (SN12C): 1.25 µM
LC50 (SN12C): 5.72 µM
GI50 (TK-10): 0.407 µM
LC50 (TK-10): 4.43 µM
GI50 (UO-31): 1.48 µM
LC50 (UO-31): > 100 µM
GI50 (PC-3): 0.311 µM
CC50 (PC-3): 5.26 µM
GI50 (DU-145): 0.792 µM
CC50 (DU-145): 4.69 µM
GI50 (MDA-MB-231): 1.04 µM
CC50 (MDA-MB-231): 5.93 µM
GI50 [2]: 0.546 µM
CC50 [2]: 8.48 µM
GI50 (MDA-MB-435): 1.08 µM
CC50 (MDA-MB-435): 6.69 µM
GI50 (BT-549): 1.06 µM
CC50 (BT-549): 5.95 µM

Reference: ChEMBL document CHEMBL1153245, “A profile of the in vitro anti-tumor activity of imidazolium-based ionic liquids” (2010)
